For one test, the system named is Zucker obese fa/fa rats. In words: Oral Glucose Tolerance Test. Particulars: 10 mg/kg; given orally 120 minutes before oral glucose 2 g/kg; Zucker obese fa/fa rats on high fat diet. The class given is in vivo, rat. As for the experimental part:
(2) Oral Glucose Tolerance Test (OGIT) Oral glucose tolerance tests were done on conscious Zucker obese fa/fa rats (age 12-13 weeks or older) fed a high fat diet (45% kcal fat) for at least two weeks prior to experimentation. The animals were fasted for 2 hours before use for experiments. A test compound or a vehicle was given orally 120 minutes before oral administration of a glucose solution at a dose of 2 g/kg body weight. Blood glucose levels were measured using a Accucheck glucometer from tail bled samples taken at different time points before and after administration of glucose (time course of […]). A time curve of the blood glucose levels was generated and the area-under-the-curve (AUC) for 120 minutes was calculated (the time of glucose administration being time zero). Percent reduction in glucose excursion was determined using the AUC in the vehicle-control group as zero percent reduction.

Test [1] concerns the target T1, recombinant human pancreatic GLK (Homo sapiens, UniProt P35557).
T1 sequence (P35557 1-465): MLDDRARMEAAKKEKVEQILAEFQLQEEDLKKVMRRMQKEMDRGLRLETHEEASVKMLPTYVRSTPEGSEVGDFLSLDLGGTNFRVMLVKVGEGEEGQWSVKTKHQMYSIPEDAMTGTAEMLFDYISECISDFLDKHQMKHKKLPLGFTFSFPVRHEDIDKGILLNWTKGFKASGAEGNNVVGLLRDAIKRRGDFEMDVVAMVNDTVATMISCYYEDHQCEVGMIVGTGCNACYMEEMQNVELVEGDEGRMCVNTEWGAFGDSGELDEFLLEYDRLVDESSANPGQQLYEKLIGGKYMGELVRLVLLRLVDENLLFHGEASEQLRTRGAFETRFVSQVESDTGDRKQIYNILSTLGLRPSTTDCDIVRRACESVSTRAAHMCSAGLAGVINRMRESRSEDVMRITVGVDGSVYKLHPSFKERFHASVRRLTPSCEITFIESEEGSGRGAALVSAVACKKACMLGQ
The test can be described thus: biochemical.

As to `Cn1ccc(NC(=O)c2cc(Oc3ccc(C(=O)N4CCC4)cc3)cc(O[C@H]3CCOC3)c2)n1` [Example 2, 3-{[4-(Azetidin-1-ylcarbonyl)phenyl]oxy}-N-(1-methyl-1H-pyrazol-3-yl)-5-[(3S)-tetrahydrofuran-3-yloxy]benzamide], in the test with Zucker obese fa/fa rats, the “effect in the Oral Glucose Tolerance Test (percent reduction in glucose excursion, AUC vs vehicle control)” value was 42%.

On to `C#C[C@H](C)Oc1cc(Oc2ccc(C(=O)N3CCC3)cc2)cc(C(=O)Nc2ccn(C)n2)c1` [Example 7, 3-{[4-(Azetidin-1-ylcarbonyl)phenyl]oxy}-5-{[(15)-1-methylprop-2-yn-1-yl]oxy}-N-(1-methyl-1H-pyrazol-3-yl)benzamide], for which, in test [1], the EC50 (in general, the concentration needed to bring the measured effect to its halfway point) came to 60 nM.
